In PubChem BioAssay (NCI) one finds TGI data, which are given here for ten compounds.

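Each compound was tested at five concentrations against cells in 96-well plates for 48 hours. TGI is the concentration that stops growth completely.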

In general, TGI refers to the concentration at which net growth stops. Read a high TGI as lower sensitivity of the cells.

Some test systems named below: HCC-2998 colon; MDA-MB-435; MDA-N; NCI-H23 lung; RXF 393 renal; SF-295 CNS; SF-539 CNS; SK-MEL-28 melanoma; SNB-19 CNS; SNB-75 CNS; SR leukemia; SW-620 colon; TK-10 renal; UACC-62 melanoma.
Common to all, as to assay: DTP human tumour cell line panel, 48 h

On to `Clc1cc(Cl)cc(N=C/C=C/Nc2cc(Cl)cc(Cl)c2)c1`, for which the TGI with HCC-2998 colon stood at 33.4 µM; in the experiment with MDA-MB-435, 35.9 µM; in the experiment on MDA-N it was 38.6 µM; in the experiment with NCI-H23 lung, 30.6 µM; with RXF 393 renal, 36.8 µM; in the experiment with SF-295 CNS, 51.4 µM. Also, the TGI in the experiment with SF-539 CNS was 58.9 µM; in the experiment on SK-MEL-28 melanoma it was 47 µM; with SNB-19 CNS, 53.8 µM; in the experiment on SNB-75 CNS it was 39.3 µM; with SR leukemia it was 86.4 µM; with SW-620 colon, 37.6 µM. Further, the TGI in the experiment on TK-10 renal came to 87 µM; in the experiment on UACC-62 melanoma it was 48 µM.
On to `COc1ccc(/C(Br)=C2\OC(=O)c3ccccc32)cc1`, for which the total growth inhibition concentration (TGI) in the experiment on HCC-2998 colon, in the experiment on MDA-MB-435, in the experiment with MDA-N, with NCI-H23 lung, in the experiment on RXF 393 renal and in the experiment with SF-295 CNS was over 10 µM each time. For the same compound, the concentration for total growth inhibition (TGI) in the experiment on SF-539 CNS, in the experiment on SK-MEL-28 melanoma, in the experiment with SNB-19 CNS, with SNB-75 CNS, in the experiment with SR leukemia and with SW-620 colon was over 10 µM throughout. In addition, the TGI in the experiment on TK-10 renal and in the experiment on UACC-62 melanoma was over 10 µM in each case.
As for `N[C@H](C(=O)O)[C@@H]1CC(Br)=NO1`, the concentration for total growth inhibition (TGI) in the experiment with HCC-2998 colon, in the experiment with MDA-MB-435, with MDA-N, with NCI-H23 lung, with RXF 393 renal and in the experiment on SF-295 CNS was over 100 µM each time. For the same compound, the TGI with SF-539 CNS, with SK-MEL-28 melanoma, with SNB-19 CNS, in the experiment on SNB-75 CNS, in the experiment with SR leukemia and in the experiment with SW-620 colon was over 100 µM in each case. Besides, the total growth inhibition concentration (TGI) with TK-10 renal and in the experiment with UACC-62 melanoma was over 100 µM each time.
For `CCOC(=O)C1(F)S(=O)(=O)OCCOS1(=O)=O`, the TGI with HCC-2998 colon, in the experiment with MDA-MB-435, in the experiment with MDA-N, in the experiment on NCI-H23 lung, in the experiment on RXF 393 renal and in the experiment with SF-295 CNS was over 100 µM throughout. The TGI in the experiment on SF-539 CNS, with SK-MEL-28 melanoma, in the experiment with SNB-19 CNS, with SNB-75 CNS, with SR leukemia and in the experiment with SW-620 colon was over 100 µM throughout. Also, the TGI in the experiment on TK-10 renal and in the experiment on UACC-62 melanoma was over 100 µM each time.
As to `CCC(=O)C(CCN1CCC2(CCCc3ccccc32)CC1)(c1ccccc1)c1ccccc1`, the TGI in the experiment with HCC-2998 colon amounted to 7.44 µM; in the experiment with MDA-MB-435, 12.5 µM; in the experiment on MDA-N, 10.9 µM; in the experiment with NCI-H23 lung, 5.45 µM; in the experiment on RXF 393 renal, 6.18 µM; in the experiment on SF-295 CNS it was 4.9 µM. For the same compound, the TGI in the experiment on SF-539 CNS was 7.3 µM; in the experiment on SK-MEL-28 melanoma, 14 µM; with SNB-19 CNS, 20.6 µM; in the experiment on SNB-75 CNS, over 27.2 µM; in the experiment with SR leukemia, 5.9 µM; in the experiment on SW-620 colon, 12.9 µM. Moreover, the results for the TGI in the experiment with TK-10 renal and in the experiment with UACC-62 melanoma were 11 µM and 10.7 µM, respectively.
`O=c1[nH]c(=S)nc2nc3c4ccc[nH]c4c4ccccc4c3nc12`: the TGI in the experiment on HCC-2998 colon, with MDA-MB-435, in the experiment on MDA-N, in the experiment with NCI-H23 lung, in the experiment with RXF 393 renal and in the experiment on SF-295 CNS was over 100 µM throughout. Further, the TGI in the experiment with SF-539 CNS, with SK-MEL-28 melanoma, in the experiment with SNB-19 CNS, with SNB-75 CNS, in the experiment on SR leukemia and in the experiment with SW-620 colon was over 100 µM each time. Besides, the total growth inhibition concentration (TGI) in the experiment with TK-10 renal and in the experiment on UACC-62 melanoma was over 100 µM throughout.
With `CCOP1(=O)CC(C)=C(Cl)C(O)C1` (stereo not given), the total growth inhibition concentration (TGI) with HCC-2998 colon, in the experiment on MDA-MB-435, in the experiment on MDA-N, with NCI-H23 lung, in the experiment with RXF 393 renal and in the experiment with SF-295 CNS was over 100 µM throughout. Besides, the TGI in the experiment on SF-539 CNS, in the experiment on SK-MEL-28 melanoma, in the experiment with SNB-19 CNS, in the experiment on SNB-75 CNS, in the experiment with SR leukemia and in the experiment on SW-620 colon was over 100 µM throughout. The TGI in the experiment on TK-10 renal and with UACC-62 melanoma was over 100 µM in each case.
With `N#Cc1nc(-c2ccco2)oc1N`, the total growth inhibition concentration (TGI) in the experiment on HCC-2998 colon, in the experiment with MDA-MB-435, with MDA-N, in the experiment with NCI-H23 lung, in the experiment with RXF 393 renal and in the experiment with SF-295 CNS was over 10 µM throughout. The TGI in the experiment on SF-539 CNS, in the experiment on SK-MEL-28 melanoma, with SNB-19 CNS, with SNB-75 CNS, in the experiment with SR leukemia and in the experiment on SW-620 colon was over 10 µM throughout. In addition, the TGI with TK-10 renal and in the experiment on UACC-62 melanoma was over 10 µM throughout.
Regarding `CC(=O)Oc1ccc(/C=C/C(=O)OCCCOC(=O)/C=C/c2ccc(OC(C)=O)c(OC(C)=O)c2)cc1OC(C)=O`, the concentration for total growth inhibition (TGI) in the experiment on HCC-2998 colon, in the experiment with MDA-MB-435, with MDA-N, with NCI-H23 lung, with RXF 393 renal and in the experiment with SF-295 CNS was over 100 µM throughout. In addition, the concentration for total growth inhibition (TGI) in the experiment on SF-539 CNS, in the experiment with SK-MEL-28 melanoma, with SNB-19 CNS, in the experiment with SNB-75 CNS, with SR leukemia and in the experiment with SW-620 colon was over 100 µM in each case. The total growth inhibition concentration (TGI) with TK-10 renal and in the experiment on UACC-62 melanoma was over 100 µM in each case.
Regarding `CC(=O)NC1C(OCc2ccccc2)OC(CO)C(O)C1OC(C)C(=O)NC(C)C(=O)NC(CCC(=O)NCCCCNc1c2ccccc2nc2cccc([N+](=O)[O-])c12)C(N)=O` (stereo not given), the TGI in the experiment on HCC-2998 colon was 0.0588 µM; in the experiment with MDA-MB-435, 0.105 µM; in the experiment with MDA-N, 0.0532 µM; in the experiment with NCI-H23 lung, 0.221 µM; with RXF 393 renal it was 0.0676 µM; in the experiment with SF-295 CNS, 1.66 µM. The TGI came out at 0.264 µM in the experiment with SF-539 CNS; 0.409 µM in the experiment on SK-MEL-28 melanoma; 0.242 µM in the experiment on SNB-19 CNS; 0.569 µM with SNB-75 CNS; 0.0539 µM in the experiment with SR leukemia; 0.0785 µM with SW-620 colon. The total growth inhibition concentration (TGI) was determined as 0.128 µM in the experiment on TK-10 renal and 0.115 µM in the experiment with UACC-62 melanoma.
